Results taken from publication PMC10280016 (Frontiers in Molecular Biosciences, 2023).
Entries after “also recorded” stand apart in the source; their conditions may differ. Where two headings read alike, the source gives them in different places.

Tests used:
SARS-CoV-2 strain G614 [1] = assay: microbe, parasite or virus in culture; format: cell-based; conditions: for IC50: Severe acute respiratory syndrome coronavirus 2, 24 h, read-out: Anti-SARS-CoV-2 activity, spike immunostaining assay (IC50 ± SD)
in vitro = conditions: human, Caco-2
SARS-CoV-2 [2] = system: SARS-CoV-2
SARS-CoV-2 [3] = conditions: Vero E6 cells; ref ter Ellen et al., 2021; cited from earlier work
SARS-CoV-2 [4] = conditions: primary human bronchial epithelial cells, air-liquid interface culture; ref ter Ellen et al., 2021; cited from earlier work
[5] = target: T1, SARS-CoV-2 main protease (Mpro) (Severe acute respiratory syndrome coronavirus 2, UniProt P0DTD1); format: biochemical
T1 construct: made in house

SARS-CoV-2 strain G614 [6] = conditions: false positive in the assay; ref Bojkova et al., 2023; cited from earlier work
SARS-CoV-2 [7] = conditions: ref Bojkova et al., 2023; cited from earlier work
SARS-CoV-2 strain G614 [8] = format: cell-based; conditions: at 10 µM
SARS-CoV = conditions: cited from earlier work
[9] = system: SARS-CoV main protease (Mpro, 3CL protease); conditions: ref Wen et al., 2007; cited from earlier work

SMILES	Selectivity index (CC50/IC50) (SARS-CoV-2 strain G614 [1])	IC50 (SARS-CoV-2 strain G614 [1]) [µM]	CC50 (in vitro) [µM]	other results
COc1ccc2c(c1)OC1c3ccc(O)cc3OCC21 (single isomer, unassigned; (-)) [Compound 2, (−)-medicarpin]	>3.0	33.4 ± 9.7	> 100	–
Oc1ccc2c(c1)OCC1c3cc4c(cc3OC21)OCO4 (single isomer, unassigned; (-)) [Compound 3, (−)-maackiain]	–	> 100	> 100	–
COc1cc2c(cc1O)C1COc3cc(O)ccc3C1O2 (single isomer, unassigned; (-)) [Compound 4, (−)-3,8-dihydroxy-9-methoxypterocarpan]	–	> 100	> 100	MN Analysis: Activity classification (predicted anti-SARS-CoV-2 activity of the compound) (SARS-CoV-2 [2]): inactive
COc1cc(/C=C/c2ccc(O)cc2)cc(OC)c1 [Compound 1, (E)-pterostilbene]	>2.9	34.7 ± 1.6	> 100	Anti-SARS-CoV-2 activity (SARS-CoV-2 [3]): has shown anti-SARS-CoV-2 activity; Anti-SARS-CoV-2 activity (SARS-CoV-2 [4]): has shown anti-SARS-CoV-2 activity
COc1ccc2c(c1)O[C@H]1c3ccc(OC)cc3OC[C@@H]21 [Compound 5, (−)-homopterocarpin]	>5.8	17.2 ± 1.9	> 100	SARS-CoV-2 Mpro inhibition [5]: did not show any inhibitory activity; also recorded: no inhibitory activity; MN Analysis: Activity classification (predicted anti-SARS-CoV-2 activity of the compound) (SARS-CoV-2 [2]): active
COc1ccc2c(c1)OC[C@H]1c3cc4c(cc3O[C@@H]21)OCO4 [Compound 6, (−)-pterocarpin]	–	> 100	> 100	MN Analysis: Activity classification (predicted anti-SARS-CoV-2 activity of the compound) (SARS-CoV-2 [2]): active
COc1ccc2c(c1)OC[C@H]1c3cc(O)c(OC)cc3O[C@@H]21 [Compound 7, (−)-8-hydroxyhomopterocarpan]	–	> 100	> 100	–
COc1ccc(CCCc2ccc(O)c(OC)c2)c(OC)c1 [Compound 9, pterosantalin D]	–	> 100	> 100	–
COc1cc(O)c2c(=O)c(-c3ccc(O)cc3)coc2c1 [Compound 11, 7-O-methylgenistein]	>2.6	37.9 ± 5.4	> 100	–
COc1cc(O)c2c(=O)c(-c3ccc(O)c(OC)c3)coc2c1 [Compound 12, 7,3′-di-O-methylorobol]	–	> 100	> 100	–
COc1cc(O)c2c(=O)c(-c3ccc(O)c(O)c3)coc2c1 [Compound 13, santal]	>1.4	74.2 ± 15.4	> 100	–
COc1ccc(-c2coc3cc(O)cc(O)c3c2=O)c(OC)c1O [Compound 14, khrinone C]	–	> 100	> 100	MN Analysis: Activity classification (predicted anti-SARS-CoV-2 activity of the compound) (SARS-CoV-2 [2]): inactive
COc1ccc2c(c1)oc(=O)c1c3ccc(OC)cc3oc21 [Compound 16, 3,9-di-O-methylcoumestrol]	–	> 100	> 100	–
COc1ccc([C@@H]2COc3cc(OC)ccc3C2)c(O)c1 [Compound 22, (−)-isosativan]	>2.5	40.8 ± 1.8	> 100	–
COc1ccc([C@@H]2COc3cc(OC)ccc3C2=O)cc1 [Compound 23, (+)-7,4′-di-O-methyldihydrodaidzein]	>1.9	53.3 ± 6.2	> 100	–
C[C@H](NC(=O)C(=O)Nc1ccccc1C(C)(C)C)C(=O)N[C@@H](CC(=O)O)C(=O)COc1c(F)c(F)cc(F)c1F [emricasan]	–	–	–	Effect on SARS-CoV-2-induced caspase 3/7 activity (SARS-CoV-2 strain G614 [6]): supressed SARS-CoV-2-induced caspase 3/7 activity; Effect on SARS-CoV-2 replication (SARS-CoV-2 [7]): did not affect SARS-CoV-2 replication
CCC(CC)COC(=O)[C@H](C)N[P@](=O)(OC[C@H]1O[C@@](C#N)(c2ccc3c(N)ncnn23)[C@H](O)[C@@H]1O)Oc1ccccc1 [remdesivir, reference compound]	>58.8	0.17 ± 0.01	> 10	Anti-SARS-CoV-2 activity, Caspase assay [% inhibition] (SARS-CoV-2 strain G614 [8]): 93.4 (at 10 µM) % inhibition; Selectivity index CC50/IC50 (SARS-CoV-2 strain G614 [1]): >58.8
O=C1OC[C@H](Cc2ccc3c(c2)OCO3)/C1=C\c1ccc2c(c1)OCO2 [savinin]	–	–	–	Anti-SARS-CoV activity EC50 (SARS-CoV): low micromolar range; Inhibition of SARS-CoV main protease, mode [9]: competitive inhibition
